From US12491227B2, “Crila® and EGCG compositions for treatment of fibroids” (Altin Biosciences Corporation, priority 2022, dated 2025)

Tests used:
BMP2 gene = details: EGCG-treated human fibroid cells; cited from earlier work
[1] = biological target: T1, Catechol-O-methyl transferase (COMT) (Homo sapiens, UniProt P21964); details: cited from earlier work
T1 sequence (P21964 1-271): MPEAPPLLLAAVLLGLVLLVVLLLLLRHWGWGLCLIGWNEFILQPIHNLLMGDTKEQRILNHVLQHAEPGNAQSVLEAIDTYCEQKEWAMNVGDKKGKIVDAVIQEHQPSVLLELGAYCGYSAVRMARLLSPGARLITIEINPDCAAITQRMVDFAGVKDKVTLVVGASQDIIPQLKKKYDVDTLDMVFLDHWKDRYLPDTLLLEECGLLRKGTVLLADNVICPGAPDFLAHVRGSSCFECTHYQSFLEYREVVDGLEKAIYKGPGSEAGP

TGF-β3 = details: human fibroid cells; cited from earlier work
[2] = system: Human uterine leiomyoma (HuLM) cells; assay: MTT cell proliferation / viability assay in HuLM cells; assay type: cell-based; details: EGCG alone
Description: Effect of Crila® or a Crila® composition (Table 1) and/or EGCG on the Uterine Fibroid Growth: In one study, we used Human Leiomyoma (HuLM) Cells in our initial evaluation of Crila® and/or EGCG treatment. Crila®, used alone or in combination with EGCG, were evaluated for their ability to inhibit the proliferation of HuLM cells in an experimental approach as described below. Similarly, the Crila® compositions are evaluated for their ability to inhibit the proliferation of HuLM cells in an experimental approach as described below. Crila® and/or EGCG were analyzed at the various concentrations and time points specified. […] Thereafter, the extract was sterile filtered through 0.22 μm PES filter and stored at room temperature until further use. EGCG was dissolved in DMSO to make a 100 mM stock solution or in dH2O to make 10 mM stock solution. Cell proliferation assay was performed by dimethylthiazolyl diphenyltetrazolium bromide (MTT) assay. Human uterine leiomyoma (HuLM) cells were cultured in DMEM/F12 containing 10% fetal bovine serum. […] Samples were measured (from the treated wells and control wells) after 1 to 2 days, 3 days, 5 days and 7 days. […] Relative cell viability was determined by using the MTT assay. […] Absorbance was measured in Varioskan Lux microplate reader (ThermoFisher) at 570 nm. […]

fibroid tumor = details: nude mouse model; cited from earlier work

O=C(O[C@@H]1Cc2c(O)cc(O)cc2O[C@@H]1c1cc(O)c(O)c(O)c1)c1cc(O)c(O)c(O)c1 [EGCG, epigallocatechin gallate]
increase in the expression of the BMP2 gene versus untreated control (BMP2 gene): 14 fold | COMT inhibitor effect [1]: potent COMT inhibitor effect | TGF-β3 production (TGF-β3): significantly decreased | concentration from which HuLM cells viability is effectively reduced ([2]; after 5 days treatment): ≥ 50 µM | concentration from which HuLM cells viability is effectively reduced ([2]; after 7 days treatment): ≥ 25 µM | fibroid tumor formation in vivo (fibroid tumor): inhibiting fibroid tumor formation
